Where “and” joins values, the source holds several entries; their conditions need not be identical. Equal values may be shown once.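 Exposure lasted 48 hours, with cells grown in 96-well plates and compounds tested at five concentrations. GI50: concentration for 50% inhibition of growth. TGI denotes the concentration required for complete inhibition of growth.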
Assays:
Test in all cases: NCI-60 cell line screen, 48 h
RPMI-8226 leukemia = tested on: RPMI-8226 leukemia
NCI-H226 lung = tested on: NCI-H226 lung
OVCAR-8 ovarian = tested on: OVCAR-8 ovarian
OVCAR-3 ovarian = tested on: OVCAR-3 ovarian
A498 renal = tested on: A498 renal
HT29 colon = tested on: HT29 colon
NCI-H522 lung = tested on: NCI-H522 lung
T-47D breast = tested on: T-47D breast
HS 578T breast = tested on: HS 578T breast
BT-549 breast = tested on: BT-549 breast

Row | Structure (SMILES) | TGI (RPMI-8226 leukemia) [µM] | TGI (NCI-H226 lung) [µM] | TGI (OVCAR-8 ovarian) [µM] | TGI (OVCAR-3 ovarian) [µM] | TGI (A498 renal) | TGI (HT29 colon) [µM] | TGI (NCI-H522 lung) [µM] | TGI (T-47D breast) [µM] | TGI (HS 578T breast) [µM] | TGI (BT-549 breast) [µM] | GI50 (A498 renal) | GI50 (NCI-H522 lung) | GI50 (BT-549 breast)
1 | C[Si](C)(C)OC1(C#N)c2ccccc2CCCC12CCCC2 (stereo unspecified) | 51.5 | > 100 | > 100 | > 100 | > 100 µM | > 100 | 77.7 | 85.5 | > 100 | > 100 | – | – | –
2 | c1ccc2c(c1)nnn2C1CCCCO1 (stereo unspecified) | > 100 | > 100 | > 100 | > 100 | > 100 µM | > 100 | > 100 | > 100 | > 100 | > 100 | – | – | –
3 | CCN(CC)/N=C\c1c2ccccc2cc2ccccc12 | 77.1 | – | > 100 | – | > 100 µM | 88.3 | 63.7 | > 100 | > 100 | > 100 | – | – | –
4 | N=c1ncn(C/C=C/c2ccccc2)c2nc[nH]c12 | > 100 | – | > 100 | > 100 | > 100 µM | > 100 | > 100 | > 100 | > 100 | > 100 | – | – | –
5 | N=C1C=CC(=C(c2ccc(N)cc2)c2ccc(N)cc2)C=C1 | 18.4 | 18.2 | 15.9 | 25.2 | 17.3 µM | 14.3 | 12.8 | 8.74 | 8.18 | 7.97 | – | – | –
6 | NC(=Nc1ccccc1)N/N=C/c1c[nH]c2ccccc12 | 46 | 16.1 | 3.98 | 0.314 | 2.12 µM | 1.54 | 0.306 | 6.89 | 2.17 | 16.9 | – | – | –
7 | C1=CC2C(C3CN(c4ccccc4)N=C13)C1C3C4C=CC21C=CC43 (stereo unspecified) | > 100 | > 100 | > 100 | > 100 | > 100 µM | > 100 | > 100 | > 100 | > 100 | > 100 | – | – | –
8 | OCc1ccc2c(c1)CC1(Cc3ccccc3C1)C2 | 46.4 | > 100 | > 100 | 68.5 | > 100 µM | 33.6 | 72.1 | > 100 | 32.9 | 24.1 | – | – | –
9 | O=c1oc2ccccc2c(O)c1C(c1ccc(OCc2ccccc2)cc1)c1c(O)c2ccccc2oc1=O | > 100 | > 100 | > 100 | > 100 | > 100 µM | > 100 | > 100 | > 100 | > 100 | 61.8 | – | – | –
10 | COC(=O)C1=C(C)NC(C)=C(C(=O)OC)C1c1cccc(/[N+]([O-])=C/c2ccccc2)c1 | > 100 | > 100 | 32.7 | 31.6 | – | 87.4 | 30.2 | 41.6 | > 100 | 30.3 | – | – | –
11 | Clc1nc2nc(N3CCNCC3)nc(N3CCCC3)c2[nH]1 | 48 | > 100 | 30.3 | 33.9 | – | 34.2 | 33.7 | 33.6 | > 100 | 89.8 | – | – | –
12 | N#Cc1ccc(-c2ccc(Cl)cc2)n(C2OC(CO)C(O)C(O)C2O)c1=S (stereo unspecified) | > 100 | > 100 | > 100 | > 100 | > 100 µM and 57.5 µM | > 100 | > 100 | > 100 | > 100 | > 100 | > 100 µM and 18.9 µM | > 100 µM and 15.5 µM | > 100 µM and 24.9 µM
13 | CCC[N+](C)(C)CCCNC(=O)c1c(O)c2ccccc2[nH]c1=O | > 100 | > 100 | > 100 | > 100 | > 100 µM | > 100 | > 100 | > 100 | > 100 | > 100 | – | – | –
14 | Cc1cn(C2CC(O)C(Cn3nncc3Cn3nc(Br)c(=O)[nH]c3=O)O2)c(=O)[nH]c1=O (stereo unspecified) | > 100 | > 100 | > 100 | > 100 | > 100 µM | – | > 100 | > 100 | > 100 | > 100 | – | – | –
15 | COc1cc(C(c2ccccc2)N2C(=O)CC[C@H]2C(=O)O)cc(OC)c1OC (stereo partly specified) | > 100 | > 100 | > 100 | > 100 | > 100 µM | > 100 | > 100 | > 100 | > 100 | > 100 | – | – | –
16 | CCOP(=O)(OCC)/C(=C/n1c(=S)[nH]c2ccccc21)C(=O)OC | > 100 | > 100 | > 100 | – | > 100 µM | > 100 | > 100 | > 100 | > 100 | > 100 | – | – | –
17 | O=S(=O)(O)c1ccc(O)c(N=Nc2c(O)ccc3ccccc23)c1 | > 100 | > 100 | > 100 | > 100 | > 100 µM | > 100 | > 100 | > 100 | > 100 | > 100 | – | – | –

Row | Structure (SMILES) | TGI (RPMI-8226 leukemia) [µM] | TGI (NCI-H226 lung) [µM] | TGI (OVCAR-8 ovarian) [µM] | TGI (OVCAR-3 ovarian) [µM] | TGI (A498 renal) | TGI (HT29 colon) [µM] | TGI (NCI-H522 lung) [µM] | TGI (T-47D breast) [µM] | TGI (HS 578T breast) [µM] | TGI (BT-549 breast) [µM] | GI50 (A498 renal) | GI50 (NCI-H522 lung) | GI50 (BT-549 breast)
18 | CCn1c(CCCc2nc3c([nH]2)c(=O)n(C)c(=O)n3C)nc2c1c(=O)n(C)c(=O)n2C | > 100 | 30.6 | > 100 | > 100 | > 100 µM | > 100 | > 100 | > 100 | > 100 | > 100 | – | – | –
19 | Cc1cc(N(CCC#N)CCC#N)ccc1/C(N=Nc1ccc(C(=O)O)cc1)=N\NC(=O)c1ccccc1 | > 100 | > 100 | > 100 | – | 84.4 µM | 41.2 | 38.5 | > 100 | 55.5 | > 100 | – | – | –
20 | COc1ccc(NC(=O)CSC(=O)c2ccccc2)c(SCCSSCCSc2cc(OC)ccc2NC(=O)CSC(=O)c2ccccc2)c1 | > 100 | > 100 | > 100 | > 100 | > 100 µM | > 100 | > 100 | > 100 | > 100 | > 100 | – | – | –
21 | O=C1C(c2ccccc2)=C(c2ccccc2)C1(Cl)Cl | 5.53 | 10.1 | 8.98 | 7.34 | 17.2 µM | 13.6 | 4.51 | 10.6 | > 28.8 | 6.99 | – | – | –
22 | CCCCCCCCCCCC(=O)N(CCCCCCCCC)CC(O)C(O)C(OC1OC(CO)C(O)C(O)C1O)C(O)CO (stereo unspecified) | 57.1 | 37.8 | 39.3 | 40.3 | 39.5 µM | 34.4 | 44.1 | 44.3 | > 100 | 36.9 | – | – | –
23 | O=C(O)C(Cc1ccccc1)Cc1ccccc1 | > 100 | > 100 | > 100 | > 100 | > 100 µM | > 100 | > 100 | > 100 | > 100 | > 100 | – | – | –
24 | O=C(CCCCCNC(=O)c1ccc(Cl)cc1)NO | > 100 | 71.2 | 86.8 | 13 | – | > 100 | 15.2 | 5.14 | > 100 | > 100 | – | – | –
25 | COc1cc2nc(-c3cccs3)nc(Nc3ccccc3C(=O)NN)c2cc1OC | > 100 | > 100 | > 100 | > 100 | > 100 µM | > 100 | > 100 | > 100 | > 100 | > 100 | – | – | –
26 | O=[N+]([O-])c1c(O)c2nonc2c2nn(-c3ccccc3)nc12 | > 100 | 79.1 | > 100 | > 100 | – | > 100 | > 100 | > 100 | > 100 | > 100 | – | – | –
27 | CCOC(=O)Cc1[nH]c(C(=O)c2ccccc2)cc1C(=O)c1ccccc1 | > 10 | 65.8 | > 10 | > 100 | > 100 µM | > 10 | > 100 | > 100 | > 100 | 38.7 | – | – | –
28 | NS(=O)(=O)c1ccc(-c2ccc([As](=O)(O)O)cc2)cc1 | > 100 | > 100 | > 100 | > 100 | – | > 100 | > 100 | > 100 | > 100 | > 100 | – | – | –
29 | COC(=O)NC(Cc1ccccc1)NC(=O)OC(C)(C)C (stereo unspecified) | > 100 | > 100 | > 100 | > 100 | > 100 µM | > 100 | > 100 | > 100 | > 100 | > 100 | – | – | –
30 | CSc1nnnc2ccccc12 | > 100 | > 100 | > 100 | > 100 | > 100 µM | > 100 | > 100 | > 100 | > 100 | > 100 | – | – | –
31 | O=C(CC(=O)N1N=C(c2ccccc2)C(N=Nc2ccc(S(=O)(=O)CCOS(=O)(=O)O)cc2)C1=O)Nc1ccc(Cl)cc1 (stereo unspecified) | > 100 | > 100 | > 100 | > 100 | > 100 µM | > 100 | > 100 | > 100 | 99.6 | > 100 | – | – | –
32 | CC1(C)CCCCCC(O)C(O)CCC(C)(C)C1=O (stereo unspecified) | > 100 | > 100 | > 100 | > 100 | > 100 µM | > 100 | > 100 | > 100 | > 100 | > 100 | – | – | –
33 | CCOC(=O)c1nc2ccccc2nc1Nc1ccc(C(=O)OC)s1 | > 100 | – | > 100 | > 100 | > 100 µM | > 100 | > 100 | > 100 | > 100 | > 100 | – | – | –

From PubChem BioAssay (NCI)
